Assay results as given in patent US8288107B2, “Materials and methods for detecting interaction of CFTR polypeptides” (Florida State University Research Foundation, priority 1999, dated 2012).

Legend:
YRG2-ΔF strain = test: Colony formation on SC-HIS-LEU-TRP media, YRG2-ΔF strain; assay type: cell-based, yeast; conditions: 1.5 mM in SC-HIS-LEU-TRP media; 30° C.; three days
Description: (§1) When the YRG2-ΔF strain was streaked onto solid media (SC-HIS, -LEU, -TRP) and incubated at 21° C., colonies formed within three days (Table 2). The YRG2-ΔF colonies were approximately the same size as colonies produced by YRG2-WT grown under the same conditions. However, when YRG2-ΔF was streaked onto SC-HIS-LEU-TRP solid media and incubated at 30° C., only small colonies were apparent after three days (substantially smaller in size than YRG2-WT colonies grown under the same growth conditions). Colonies were not apparent (or were detectable only as extremely small micro-colonies) when YRG2-ΔF was streaked onto solid SC-HIS, -LEU, -TRP media and incubated at 34° C. The ΔF508 mutation thus conferred a temperature-sensitive HIS+ phenotype to the yeast strain containing pADPN-ΔF and pBDPN-ΔF. To further enhance the temperature-sensitive HIS− colony phenotype of the YRG2-ΔF strain relative to the YRG2-WT strain, it is advantageous to incorporate 3-amino-1,2,4-triazole at a concentration of 1.5 mM into the SC-HIS-LEU-TRP media.
To use the YRG2-ΔF strain for screening purposes, a lawn of the YRG2-ΔF strain is spread onto selective media. This media contains yeast nitrogen base and all amino acids except for histidine, leucine, and tryptophan. The media also contains 3-amino 1,2,4-triazole at a concentration of 1.5 mM. […]

YRG2-WT strain = test: Colony formation on SC-HIS-LEU-TRP media, YRG2-WT strain; assay type: cell-based, yeast; conditions: 1.5 mM in SC-HIS-LEU-TRP media; 30° C.; three days
Description: as §1

[1] = biological target: T1, NBD1 ΔF508 domain of CFTR (dimerization) (Homo sapiens, UniProt P13569, DEL508-508/V470M); test: Yeast two-hybrid growth assay with YRG2-ΔF strain on selective media lacking histidine; assay type: cell-based; conditions: 1.5M glycerol in growth media; 37° C.; media lacking leucine, tryptophan and histidine
T1 construct: expressed in transfected cells; host or cells: Saccharomyces cerevisiae strain YRG2 (Stratagene), transformed with pBDPN-ΔF and pADPN-ΔF = YRG2-ΔF
Description: FIGS. 2A-2C show growth of two-hybrid yeast strains containing wildtype and mutant CFTR NBD1. The yeast strain YRG2 was transformed with pADGAL4 and pBDGAL4 constructs containing wildtype and mutant CFTR NBD1 as indicated. Each strain was grown in synthetic complete media lacking leucine and tryptophan, and equal aliquots of cells in 10-fold dilutions were spotted to synthetic complete media lacking leucine, tryptophan and histidine. Dilutions for each strain proceed from right to left, with the spots from most dilute cultures corresponding to the tapered end of the triangle. Plates were incubated at either 21° C. (FIG. 2A) or 37° C. (FIG. 2B) (for 3 days and 5 days respectively). Glycerol was added to the media to a final concentration of 1.5 M as indicated (1.5 M Glyc) (FIG. 2C).
The present invention concerns methods for screening chemical compounds for drug candidates with activity to correct the dimerization defect associated with mutant CFTR NBD1 containing the ΔF508 mutation. […] If the sample tested is a pure compound, the compound can then be analyzed further in secondary assays to determine its activity to restore CFTRΔF508 cAMP-stimulated chloride channel activity in mammalian cells expressing CFTRΔF508 (Sheppard et al., 1994). […]

T1 sequence (P13569 with tags, fused parts or gaps V470M/DEL508-508): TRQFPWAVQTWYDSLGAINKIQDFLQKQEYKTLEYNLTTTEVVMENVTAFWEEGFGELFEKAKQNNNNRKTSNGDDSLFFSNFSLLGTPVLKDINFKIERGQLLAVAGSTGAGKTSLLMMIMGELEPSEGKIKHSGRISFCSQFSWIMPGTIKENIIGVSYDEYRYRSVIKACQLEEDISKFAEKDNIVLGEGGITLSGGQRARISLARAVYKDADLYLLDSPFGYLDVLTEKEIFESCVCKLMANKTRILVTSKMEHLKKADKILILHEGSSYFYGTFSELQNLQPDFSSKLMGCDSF
T1 sequence (P13569 with tags, fused parts or gaps V470M/DEL508-508): as above

Structure (SMILES)	colony formation of YRG2-ΔF strain (YRG2-ΔF strain)	colony formation of YRG2-WT strain (YRG2-WT strain)	rescue of temperature-sensitive dimerization of mutant NBD1 containing ΔF508 [1]
Nc1nc[nH]n1 [3-amino-1,2,4-triazole]	prevents colony formation	does not inhibit colony formation	
OCC(O)CO [glycerol]			rescued
